The results in this text go back to BindingDB's records for PubMed 8968358 (University of California, 1996).

pKi: −log10 of the molar value.

The experiment addresses Muscarinic acetylcholine receptor M3 (Rattus norvegicus, UniProt P08483).

Sequence of Muscarinic acetylcholine receptor M3 (P08483 whole entry): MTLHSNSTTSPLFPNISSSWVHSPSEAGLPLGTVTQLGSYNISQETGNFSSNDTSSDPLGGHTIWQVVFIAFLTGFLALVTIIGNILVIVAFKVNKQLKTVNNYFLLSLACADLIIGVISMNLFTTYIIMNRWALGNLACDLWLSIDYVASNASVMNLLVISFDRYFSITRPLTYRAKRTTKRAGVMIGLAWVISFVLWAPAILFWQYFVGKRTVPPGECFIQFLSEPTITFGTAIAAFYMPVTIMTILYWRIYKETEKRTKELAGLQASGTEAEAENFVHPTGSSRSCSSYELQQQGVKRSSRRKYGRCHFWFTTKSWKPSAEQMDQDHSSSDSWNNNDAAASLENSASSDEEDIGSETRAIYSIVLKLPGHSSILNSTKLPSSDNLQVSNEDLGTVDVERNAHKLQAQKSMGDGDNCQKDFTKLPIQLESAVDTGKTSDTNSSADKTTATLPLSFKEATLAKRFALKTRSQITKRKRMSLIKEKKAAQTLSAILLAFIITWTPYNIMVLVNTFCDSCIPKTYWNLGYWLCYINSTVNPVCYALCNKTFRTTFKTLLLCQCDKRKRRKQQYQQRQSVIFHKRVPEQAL

`C[N+](C)(C)CC#CCN1CCCC1=O` had a pKi of 5.06.
